Measurements published in the supplement of paper PMC11997997.

How the values were obtained:
[1] = tested on: murine bone marrow-derived macrophages; test: area under cytotoxicity dose-response curve (AUC (% cytotoxicity x dose, relative)); higher = more cytotoxic; conditions: duration: 6 days; dose range: 0.13-80 uM, 8 points
How it was run: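 Values are the area under the cytotoxicity dose–response curve, calculated with GraphPad Prism version 10. Primary murine bone marrow-derived macrophages were exposed to final concentrations of 80–0.13 μM for 6 days, and viability was read by CellTiter-Glo luminescence with normalisation to vehicle and positive control wells.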

[2] = tested on: Mycobacterium tuberculosis CDC1551 (intracellular, in murine BMDM); test: area under intracellular growth-inhibition dose-response curve (AUC (% inhibition x dose, relative)); higher = more potent; conditions: duration: 6 days; dose range: 0.13-80 uM, 8 points
How it was run: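 The value is the area under the growth-inhibition dose–response curve, calculated in GraphPad Prism. Primary murine bone marrow-derived macrophages were seeded in 384-well opaque plates and, 24 h later, infected for 1 h with luciferase-expressing M. tuberculosis CDC1551 at multiplicity of infection 1. Cells were then exposed for 6 days to an 8-dose, 2.5-fold series (final 80–0.13 μM). Growth was read with the Bright-Glo luciferin assay and normalised to a reference drug control and to the lowest-concentration wells.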

| SMILES | area under cytotoxicity dose-response curve [1] | area under intracellular growth-inhibition dose-response curve [2] |
| --- | --- | --- |
| COc1ccc(CCNC2=C(Cl)C(=O)N(CCc3ccc(OC)c(OC)c3)C2=O)cc1OC | 92.7 | 66.8 |
| C/C(=N/NC(=O)c1ccncc1)c1ccc2c(c1)OCO2 | 13.8 | 257 |
| CC1CCN(C(=O)C2CCC(CNc3c(N4CCCCC4)c(=O)c3=O)CC2)CC1 (centres undefined) | 8.86 | 87.1 |
| COc1cc(/C=N\NC(=O)c2sc(N)nc2C)cc(OC)c1OC | 140 | 35.1 |
| Cc1cc(C(=O)N/N=C/c2ccc([N+](=O)[O-])o2)c(C)o1 | 105 | 142 |
| COC(=O)Cc1ccc(NC(=S)Nc2ccc(N3CCOCC3)cc2)cc1 | 50.5 | 241 |
| O=c1c2cc(Cl)ccc2oc2nc3n(c(=O)c12)CCCS3 | 33.5 | 216 |
| Cl.O=C(CCN1CCN(CCO)CC1)N1c2ccccc2Sc2ccc(C(F)(F)F)cc21 | 75 | 61.3 |
| Cc1nnc(N2CCCCC2)c2ccccc12 | 15.8 | 117 |
| CNC[C@H](CC1CCCCC1)NC[C@H](Cc1ccccc1)NCCC12CC3CC(CC(C3)C1)C2 | 43 | 104 |
| C/C(=N\Cc1ccc2c(c1)OCO2)C1=C(O)c2ccccc2C1=O | < 0 | 214 |
| O=C(Nc1ccc([N+](=O)[O-])cc1Cl)c1cc(Cl)ccc1O | 108 | 151 |
| Cc1cc(C(C)(C)C)cc(C)c1C[n+]1c2n(c3ccc(C(F)(F)F)cc31)CCCCC2.[Cl-] | 120 | 138 |
| CC[n+]1c(/C=C/N(C)c2ccccc2)n(-c2ccccc2)c2ccc(-c3nc4ccccc4s3)cc21.[I-] | 146 | 162 |
| COc1cc(OC)c2c(OC)cccc2n1 | 101 | 92.3 |
| O=[N+]([O-])c1ccc(N2CCCCC2)s1 | 14.5 | 165 |
| COc1cc(/C=C/C(=O)c2ccc([N+](=O)[O-])o2)ccc1O | 107 | 76 |
| O=C1CN(C(=O)COC(=O)c2c(F)cccc2Cl)c2ccccc2N1 | < 0 | 148 |
| O=C(NN=C1C2CC3CC(C2)CC1C3)c1ccncc1 | 103 | 238 |
| NC(=S)N/N=C/c1ccc(-c2cc(Cl)ccc2Cl)o1 | 33.2 | 247 |
| Clc1cnc(N/N=C/c2ccco2)c(Cl)c1 | 93.8 | 189 |
| COC(=O)c1ccc2nc(C)cc(Nc3ccc(N(C)C)cc3)c2c1.Cl | < 0 | 243 |
| C/C(CC(=O)Nc1cccc(F)c1)=N\NC(=O)c1ccncc1 | 9.96 | 272 |
| CCOC(=O)c1cn(Cc2cccc(C)c2)nn1 | 56.6 | 98.1 |
| O=C(CSc1cccc[n+]1[O-])Nc1ccccc1Oc1ccccc1 | 53.2 | 39.4 |
| O=C(/C=C/c1cccs1)NCc1cccs1 | 34.6 | 240 |

| SMILES | area under cytotoxicity dose-response curve [1] | area under intracellular growth-inhibition dose-response curve [2] |
| --- | --- | --- |
| C/C(=N\NC(=O)c1ccncc1)c1ccc(N2CCOCC2)cc1 | 16.1 | 255 |
| CCOC(=O)[N-]c1c[n+](N2CCOCC2)no1 | 41.1 | 28 |
| CCOc1ccc2oc(C(=O)OCC(=O)NCc3ccc(OC)cc3)c(C)c2c1 | < 0 | 58.1 |
| O=C(O)/C=C\C(=O)O.OC(CCCN1CCCCC1)(c1ccccc1)c1ccc(C(F)(F)F)cc1 (centres undefined) | 32.3 | 214 |
| CN1/C(=C/C(=O)c2cccs2)Sc2ccccc21 | 48 | 139 |
| NC(=S)N/N=C/c1ccc(-c2ccc(Cl)c(Cl)c2)o1 | 107 | 219 |
| O=C(NN=C1CCCCCC1)c1ccncc1 | 11.3 | 273 |
| N#Cc1ccc(C(=O)NCC2CCCCC2)cc1 | 44.2 | 107 |
| O=C(Nc1ccc(NC(=S)NC(=O)c2ccccc2F)cc1)c1cccs1 | 13.8 | 268 |
| O=C(N/N=C\c1ccc([N+](=O)[O-])o1)C1COc2ccccc2O1 (centres undefined) | 10.7 | 203 |
| CO[C@@H]1[C@@H](OC(N)=O)[C@@H](O)C(Oc2ccc3c(O)c(NC(=O)c4ccc([O-])c(CC=C(C)C)c4)c(=O)oc3c2C)OC1(C)C.[Na+] (some centres undefined) | 80.2 | 24.9 |
| O=C(Nc1ccc(S(=O)(=O)Nc2nccs2)cc1)C(F)(F)F | 30 | 159 |
| Cc1nnc(SCC2=C(C(=O)O)N3C(=O)C(NC(=O)Cn4ncc(Cl)c4C)C3SC2)s1 (centres undefined) | 66.2 | 245 |
| CNC[C@@H](CC1CCCCC1)NC[C@H](CC(C)C)NCCc1cccc(C(F)(F)F)c1 | 94 | 197 |
| Cc1ccc(-c2nn(-c3ccccc3)cc2/C=N/NC(=O)c2ccncc2)o1 | 48.7 | 261 |
| COc1ccc(-c2n(C)c3ccccc3[n+]2CC(=O)OC2CC(C)CCC2C(C)C)cc1.[Cl-] (centres undefined) | 117 | 140 |
| O=[N+]([O-])c1ccccc1-c1cc(-c2ccccc2)cc(-c2ccccc2)[n+]1Cc1ccccc1Cl.[O-][Cl+3]([O-])([O-])[O-] | < 0 | 144 |
| CC1C/C(=C/c2ccncc2)C(=O)/C(=C/c2ccncc2)C1 (centres undefined) | 54.5 | < 0 |
| CCOC(=O)c1c(-c2ccccc2)nc2cc(C)ccn12 | 1.58 | 147 |
| CCCN(CCC)CC(O)Cn1cc(/C=C/C(=O)c2ccccc2)c2ccccc21 (centres undefined) | 9.39 | 226 |
| O=C(CSc1cccc[n+]1[O-])CSc1cccc[n+]1[O-] | 9.55 | 29.1 |
| CC(C)c1ccc(NC(=S)Nc2ccc3c[nH]nc3c2)cc1 | < 0 | 271 |
| O=C(/C=C/c1cccs1)N1CCN(Cc2ccc3c(c2)OCO3)CC1 | < 0 | 271 |
| Cc1ccc(C)c(-c2nnc(NC(=O)c3ccc([N+](=O)[O-])o3)o2)c1 | 128 | 62 |
| C/C(CC(C)(C)C1CCCCC1)=N\NC(N)=S | 119 | 238 |
| O=C(N/N=C/C=C/c1cccc([N+](=O)[O-])c1)c1ccncc1 | 17.5 | 111 |
